# Data published in patent publication US20190209539A1, “THIOHYDANTOIN ANDROGEN RECEPTOR ANTAGONISTS FOR THE TREATMENT OF CANCER” (Janssen Pharmaceutica NV, priority 2016, published 2019).
# Residue numbers refer to the chain shown, from its start. Values joined by “and” are separate entries in the source; they are usually repeats but may differ in a detail not shown here. Identical values can stand only once.
# Key:
# [1] = test system: VCaP cells; assay: Prostate Cancer Cell Viability Assay-VCaP; assay type: cell-based; settings: Homo sapiens, 120 h, 5 days incubation, CellTiter-Glo
# Description: VCaP cells were counted and seeded into black 384-well plates with clear bottoms at a concentration of 125,000 cells per mL in phenol red-free DMEM containing 10% Charcoal Stripped Serum. 16 μL of the suspension was added per well and incubated for 48 h to allow the cells to adhere. After 48 hours, a 12 point serial semilog dilution of each compound was added to the cells in 16 μL at a final concentration of 100 μM to 0.0003 μM. The compounds of Formula (I) were also run in antagonist mode using 30 pM R1881 in which 8 μL of the compound was added to the cells followed by 8 μL of R1881. After 5 days of incubation at 37° C., 16 μL Of CellTiter-Glo (Promega) was added to the cells and the relative luminescence units (RLUs) of each well determined using the Envision. The percent stimulation and % inhibition were determined for each sample and plotted using GraphPad Prism.
# [2] = biological target: rGABA-gated Cl− channel; assay: GABA-gated Cl Channel Antagonist Radioligand Binding Assay ([35S]-TBPS, cerebral cortex membranes); design: species or system rat; settings: 3 nM [35S]-TBPS
# Description: GABA-gated Cl Chanel assays were performed at CEREP according to the following method. Membrane homogenates of cerebral cortex (120 μg protein) were incubated for 120 min at 22° C. with 3 nM [^35S]-TBPS in the absence or presence of the test compound in a buffer containing 50 mM Na2HPO4/KH2PO4 (pH 7.4) and 500 mM NaCl. Nonspecific binding was determined in the presence of 20 μM picrotoxinin. Following incubation, the samples were filtered rapidly under vacuum through glass fiber filters (GF/B, Packard) presoaked with 0.3% PEI and rinsed several times with ice-cold 50 mM Tris-HCl using a 96-sample cell harvester (Unifilter, Packard). The filters were dried then counted for radioactivity in a scintillation counter (Topcount, Packard) using a scintillation cocktail (Microscint 0, Packard). The results are expressed as a percent inhibition of the control radio ligand specific binding. The standard reference compound is picrotoxinin, which was tested in each experiment at several concentrations to obtain a competition curve from which its ICso was calculated. In this assay, the following representative compounds disclosed herein had recorded activities at a 10 μM single point concentration in the GABA-gated Cl-Channel Binding Assay.
# [3] = biological target: T1, GR (human) (Homo sapiens, UniProt P04150); assay: Radioligand binding to GR ([3H]dexamethasone, IM-9 cells cytosol)
# T1 construct: GR (human) (agonist radioligand) IM-9 cells (cytosol); endogenous in cells; host or cells: IM-9 cells (cytosol)
# T1 sequence (P04150 1-777): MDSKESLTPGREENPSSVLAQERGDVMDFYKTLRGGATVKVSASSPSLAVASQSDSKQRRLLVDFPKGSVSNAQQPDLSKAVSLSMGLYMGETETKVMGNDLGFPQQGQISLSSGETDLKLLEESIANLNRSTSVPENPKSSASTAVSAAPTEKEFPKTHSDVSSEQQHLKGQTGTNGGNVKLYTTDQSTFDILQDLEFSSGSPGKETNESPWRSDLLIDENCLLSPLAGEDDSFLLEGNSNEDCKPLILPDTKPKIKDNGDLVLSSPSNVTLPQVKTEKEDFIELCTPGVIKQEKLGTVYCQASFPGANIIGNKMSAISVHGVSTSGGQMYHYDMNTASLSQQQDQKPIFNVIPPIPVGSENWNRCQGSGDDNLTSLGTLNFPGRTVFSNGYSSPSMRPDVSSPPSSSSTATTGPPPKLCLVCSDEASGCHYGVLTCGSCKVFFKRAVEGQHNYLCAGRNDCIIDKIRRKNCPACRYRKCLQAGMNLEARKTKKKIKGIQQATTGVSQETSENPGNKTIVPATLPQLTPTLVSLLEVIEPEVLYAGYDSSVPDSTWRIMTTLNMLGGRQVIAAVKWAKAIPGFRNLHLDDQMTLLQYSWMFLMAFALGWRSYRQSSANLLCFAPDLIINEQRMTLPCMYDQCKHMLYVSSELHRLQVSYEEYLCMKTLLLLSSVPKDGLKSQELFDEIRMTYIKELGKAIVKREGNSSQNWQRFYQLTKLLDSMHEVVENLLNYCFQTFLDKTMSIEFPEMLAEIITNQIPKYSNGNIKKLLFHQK
# Description: Radioligand binding assays were performed with the cell extracts and ligands as detailed below. Complete methodology is contained within the cited publications. Kd values were determined by Non-Specific Incubation Detection Method.
# GR (human) (agonist radioligand) IM-9 cells (cytosol) [^3H]dexamethasone 1.5 nM 1.5 nM triamcinolone (10 μM) 6 h 4° C. Scintillation counting (Clark, A. F et al. (1996) Invest. Ophtalmol. Vis. Sci., 37: 805-813). ER (nonselective) (human) (agonist radioligand) MCF-7 cells (cytosol) [^3H]estradiol 0.4 nM 0.2 nM 17-β-estradiol (6 μM) 20 h 4° C. Scintillation counting (Parker, G. J et al.(2000) J. Biomol. Screen., 5: 77-88).
# The results are expressed as a percent of control specific binding measured specific binding *100 control specific binding and as a percent inhibition of control specific binding 100-(measured specific binding*100) control specific binding obtained in the presence of compoundn.
# The IC50 values (concentration causing a half-maximal inhibition of control specific binding) and Hill coefficients (nH) were determined by non-linear regression analysis of the competition curves generated with mean replicate values using Hill equation curve fitting.
# The inhibition constants (Ki) were calculated using the Cheng Prusoff equation:
# wherein L=concentration of radioligand in the assay, and KD=affinity of the radioligand for the receptor. […]
# [4] = test system: LNCaP F876L; assay: LNCaP Proliferation Assay (LNCaP F876L); assay type: cell-based; settings: Homo sapiens, 96 h, 4 days, normalized to 0.1 nM R1881 stimulation
# Description: (§1) LNCaP cells were expanded in RPMI 10% FBS in T150 flasks. The cells were dislodged with 0.25% Trypsin, washed in complete media, centrifuged (300 g, 3 min), and the supernatant aspirated. The cells were resuspended in RPMI phenol-red free media with 1% charcoal-stripped serum (CSS) and counted using a ViCELL (Beckman-Coulter). 7500 cells were added to each well of a white optical bottom 384-well plate and incubated for 2 days at 37° C. 5% CO2. Compound dilutions were prepared in RPMI CSS using 50 mM stock solutions and added to the cells either alone (agonist mode) or in combination with 0.1nM R1881 (antagonist mode). The plates were incubated for 4 days, followed by addition of CellTiter-Glo Luminescent Cell Viability kit reagent (Promega). The plates were placed on a shaker at 3000 rpm for 10 minutes and then read on an EnVision plate reader (Perkin Elmer) using Luminescence assay default settings. The data was analyzed, normalized to 0.1 nM R1881 stimulation, and plotted in GraphPad Prism.
# [5] = test system: LNCaP WT; assay: LNCaP Proliferation Assay (LNCaP WT); assay type: cell-based; settings: Homo sapiens, 96 h, 4 days, normalized to 0.1 nM R1881 stimulation
# Description: as §1
# [6] = biological target: T2, F876L mutant Androgen Receptor (AR-F876L) (Homo sapiens, UniProt P10275, F877L); assay: LNCaP-AR-F876L AG: ARE luciferase reporter assay, agonist mode; assay type: cell-based; settings: maximum % stimulation (agonist response), % of 1 μM R-1881 max
# T2 construct: expressed in transfected cells; host or cells: LNCaP F876L cells with ARE firefly luciferase lentiviral construct
# T2 sequence (P10275 1-920 F877L): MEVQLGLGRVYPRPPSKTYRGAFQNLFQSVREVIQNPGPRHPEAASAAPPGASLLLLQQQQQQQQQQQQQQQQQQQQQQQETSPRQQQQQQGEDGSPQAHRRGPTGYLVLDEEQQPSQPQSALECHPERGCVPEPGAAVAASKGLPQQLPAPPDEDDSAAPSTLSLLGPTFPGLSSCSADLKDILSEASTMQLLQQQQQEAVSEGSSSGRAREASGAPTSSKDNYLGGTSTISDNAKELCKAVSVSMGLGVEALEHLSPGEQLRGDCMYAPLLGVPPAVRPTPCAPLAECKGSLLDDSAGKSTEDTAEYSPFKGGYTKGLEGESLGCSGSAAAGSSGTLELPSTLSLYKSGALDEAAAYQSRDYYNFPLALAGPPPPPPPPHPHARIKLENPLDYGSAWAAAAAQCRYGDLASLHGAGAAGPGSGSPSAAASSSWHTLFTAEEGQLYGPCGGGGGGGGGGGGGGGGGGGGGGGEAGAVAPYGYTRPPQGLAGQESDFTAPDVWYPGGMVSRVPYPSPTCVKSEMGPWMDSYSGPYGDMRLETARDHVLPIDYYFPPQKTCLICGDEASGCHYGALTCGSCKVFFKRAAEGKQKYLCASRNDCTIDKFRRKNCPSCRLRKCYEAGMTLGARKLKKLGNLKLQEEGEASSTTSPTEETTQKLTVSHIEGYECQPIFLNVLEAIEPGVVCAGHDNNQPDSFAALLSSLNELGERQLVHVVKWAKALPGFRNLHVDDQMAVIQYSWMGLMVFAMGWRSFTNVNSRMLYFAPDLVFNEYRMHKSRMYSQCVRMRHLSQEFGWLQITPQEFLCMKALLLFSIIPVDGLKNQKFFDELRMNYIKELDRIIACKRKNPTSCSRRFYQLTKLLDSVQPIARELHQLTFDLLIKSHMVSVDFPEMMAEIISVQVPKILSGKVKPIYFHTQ
# [7] = biological target: T3, wild-type Androgen Receptor (AR-wt) (Homo sapiens, UniProt P10275); assay: LNCaP-AR-wt AG: ARE luciferase reporter assay, agonist mode; assay type: cell-based; settings: maximum % stimulation (agonist response), % of 1 μM R-1881 max
# T3 construct: expressed in transfected cells; host or cells: LNCaP AR (cs) cells with ARE firefly luciferase lentiviral construct
# T3 sequence (P10275 1-920): T2 sequence (P10275 1-920 F877L) with L877F
# [8] = test system: androgen dependent signaling (androgen sensitive organs, ASO); assay: Hershberger Assay; assay type: in vivo, Sprague-Dawley rats; settings: p≤0.05, in all 5 organs
# Description: The effect of AR antagonists on androgen dependent signaling in vivo was assessed using the Hershberger assay. In this assay, peripubertal castrated male Sprague-Dawley rats were administered AR antagonists described herein in the presence of testosterone (0.4 mg/kg testosterone propionate) and the weights of androgen dependent organs measured. Dosing was continued for 10 days and measurements taken 24 h after the last dose. The extent of antagonism of AR and consequent inhibition of organ growth was evaluated by comparison to the castration control. Compounds of Formula (I) were dosed orally QD and an endpoint assessment made by change in weight of 5 androgen sensitive organs (ASO): Paired Cowper's Glands (CG), Seminal Vesicles with Fluids and Coagulating Glands (SVCG), Glans Penis (GP), Ventral Prostate (VP) and Levator Ani-Bulbocavernosus Complex (LABC)). According to assay guidelines, statistically significant suppression of ASO is required in 2 of 5 organs for a compound to be classified as an anti-androgen (analysis was performed by t-test/Mann-Whitney).
# Compounds defined herein were administered at the indicated dose (mg/kg) and flutamide (FT), positive control, at 3 mg/kg. […]
IC50 [1] [µM],IC50 [2] [µM],% inhibition @ 10 μM ([2]; 10 μM single point),"Ki ([3]; Cheng Prusoff, [3H]-dexamethasone) [µM]","IC50 ([3]; [3H]-dexamethasone 1.5 nM, IM-9 cytosol) [µM]",SMILES,IC50 [4] [µM],IC50 [5] [µM],LNCaP-AR-F876L AG MAX % Stim [6] [%],LNCaP-AR-wt AG MAX % Stim [7] [%],reduction in ASO versus TP control [8]
0.076,13,42% and 49%,9.9,20,"CN1CCC(Oc2ccc(N3C(=S)N(c4cnc(C#N)c(C(F)(F)F)c4)C(=O)C34CCC4)cc2)CC1 [Cpd 85, 5-[8-[4-[(1-methyl-4-piperidyl)oxy]phenyl]-5-oxo-7-thioxo-6,8-diazaspiro[3.4]octan-6-yl]-3-(trifluoromethyl)pyridine-2-carbonitrile]",8.87,3.29,,,
,,,,,"CN1CCN(CCCc2ccc(N3C(=S)N(c4cnc(C#N)c(C(F)(F)F)c4)C(=O)C34CCC4)cc2)CC1 [Cpd 43, 5-[8-[4-[3-(4-methylpiperazin-1-yl)propyl]phenyl]-5-oxo-7-thioxo-6,8-diazaspiro[3.4]octan-6-yl]-3-(trifluoromethyl)pyridine-2-carbonitrile]",,,0.4,0.7,significant reduction
